Measurements reported in ChEMBL document CHEMBL1201862, “PubChem BioAssay data set” (2004).
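Test compounds were applied to cells in 96-well plates for 48 hours at 5 doses. At the GI50, growth is halved.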 Calls of active or inactive are those of the source. Rule as the data show it: active = GI50 up to about 1.1 µM and inactive = higher.

Tests used:
Assay in all cases: DTP human tumour cell line panel, 48 h
786-0 = tested on: 786-0
A549 = tested on: A549
CAKI-1 = tested on: CAKI-1
CCRF-CEM = tested on: CCRF-CEM
DU-145 = tested on: DU-145
HCC 2998 = tested on: HCC 2998
HOP-92 = tested on: HOP-92
K562 = tested on: K562
MCF7 = tested on: MCF7
MDA-N = tested on: MDA-N
NCI-H460 = tested on: NCI-H460
OVCAR-4 = tested on: OVCAR-4
OVCAR-8 = tested on: OVCAR-8
SK-MEL-28 = tested on: SK-MEL-28
SR = tested on: SR
U-251 = tested on: U-251
UACC-257 = tested on: UACC-257
UACC-62 = tested on: UACC-62
UO-31 = tested on: UO-31
SF-539 = tested on: SF-539

Compound | GI50 (786-0) | GI50 (A549) | GI50 (CAKI-1) | GI50 (CCRF-CEM) | GI50 (DU-145) | GI50 (HCC 2998) | GI50 (HOP-92) | GI50 (K562) | GI50 (MCF7) | GI50 (MDA-N) | GI50 (NCI-H460) | GI50 (OVCAR-4) | GI50 (OVCAR-8) | GI50 (SK-MEL-28) | GI50 (SR) | GI50 (U-251) | GI50 (UACC-257) | GI50 (UACC-62) | GI50 (UO-31) | GI50 (SF-539)
CCCCCCCCCC(=O)OCC1(CO)C/C(=C/CC(C(C)C)C(C)C)C(=O)O1 (stereo not drawn) | 35.7 µM (inactive) | 26.6 µM (inactive) | 16 µM (inactive) | 14.9 µM (inactive) | 71 µM (inactive) | 39.3 µM (inactive) | > 100 µM (inactive) | 18.3 µM (inactive) | 59 µM (inactive) | 87.1 µM (inactive) | 23.5 µM (inactive) | 61.2 µM (inactive) | 47.1 µM (inactive) | 71.3 µM (inactive) | 26.2 µM (inactive) | 26.7 µM (inactive) | > 100 µM (inactive) | 49.2 µM (inactive) | 28.7 µM (inactive) | –
COc1ccc(NC(C)=O)cc1N1C(=O)/C(=C\c2cccc(Oc3ccccc3)c2)SC1c1ccccc1 (stereo not drawn) | 24.3 µM (inactive) | 40.4 µM (inactive) | 28.4 µM (inactive) | 10.3 µM (inactive) | 35.3 µM (inactive) | 36.1 µM (inactive) | 20.9 µM (inactive) | 19.8 µM (inactive) | 23.8 µM (inactive) | 26.2 µM (inactive) | 36.4 µM (inactive) | 14.2 µM (inactive) | 22.5 µM (inactive) | 28.3 µM (inactive) | 3.7 µM (inactive) | 25.8 µM (inactive) | 40.6 µM (inactive) | 26.7 µM (inactive) | 17.3 µM (inactive) | –
COC(=O)Nc1nc(=O)c2ccccc2[nH]1 | > 100 µM (inactive) | 0.0775 µM (active) | > 100 µM (inactive) | > 100 µM (inactive) | > 100 µM (inactive) | > 100 µM (inactive) | – | 31.1 µM (inactive) | > 100 µM (inactive) | 19.5 µM (inactive) | > 100 µM (inactive) | > 100 µM (inactive) | > 100 µM (inactive) | > 100 µM (inactive) | > 100 µM (inactive) | 43.8 µM (inactive) | > 100 µM (inactive) | > 100 µM (inactive) | 32.1 µM (inactive) | > 100 µM (inactive)
CN(NC(=O)CCCl)C1=NCCN1 | > 100 µM (inactive) | > 100 µM (inactive) | – | > 100 µM (inactive) | > 100 µM (inactive) | > 100 µM (inactive) | > 100 µM (inactive) | > 100 µM (inactive) | > 100 µM (inactive) | > 100 µM (inactive) | > 100 µM (inactive) | > 100 µM (inactive) | > 100 µM (inactive) | > 100 µM (inactive) | > 100 µM (inactive) | > 100 µM (inactive) | > 100 µM (inactive) | > 100 µM (inactive) | > 100 µM (inactive) | > 100 µM (inactive)
O=S1(=O)c2ccccc2N2C(c3ccccc3)=NOC2(c2ccccc2)CC1c1ccc(Br)cc1 (stereo not drawn) | > 100 µM (inactive) | > 100 µM (inactive) | – | > 100 µM (inactive) | > 100 µM (inactive) | > 100 µM (inactive) | 32.4 µM (inactive) | > 100 µM (inactive) | > 100 µM (inactive) | > 100 µM (inactive) | > 100 µM (inactive) | > 100 µM (inactive) | > 100 µM (inactive) | > 100 µM (inactive) | > 100 µM (inactive) | > 100 µM (inactive) | > 100 µM (inactive) | > 100 µM (inactive) | > 100 µM (inactive) | > 100 µM (inactive)
CSc1[nH]nc(N)c1C(=O)Nc1ccccc1 | > 100 µM (inactive) | > 100 µM (inactive) | > 100 µM (inactive) | > 100 µM (inactive) | > 100 µM (inactive) | > 100 µM (inactive) | – | > 100 µM (inactive) | > 100 µM (inactive) | > 100 µM (inactive) | > 100 µM (inactive) | > 100 µM (inactive) | > 100 µM (inactive) | > 100 µM (inactive) | > 100 µM (inactive) | > 100 µM (inactive) | > 100 µM (inactive) | > 100 µM (inactive) | > 100 µM (inactive) | > 100 µM (inactive)
O=S1(=O)OCCOS(=O)(=O)C1(F)Br | > 100 µM (inactive) | > 100 µM (inactive) | > 100 µM (inactive) | > 100 µM (inactive) | > 100 µM (inactive) | > 100 µM (inactive) | – | > 100 µM (inactive) | > 100 µM (inactive) | > 100 µM (inactive) | – | > 100 µM (inactive) | > 100 µM (inactive) | > 100 µM (inactive) | > 100 µM (inactive) | > 100 µM (inactive) | > 100 µM (inactive) | > 100 µM (inactive) | > 100 µM (inactive) | > 100 µM (inactive)
CN(C)CCNC(=O)Cn1ccc(=O)c2c([N+](=O)[O-])cccc21 | > 100 µM (inactive) | > 100 µM (inactive) | > 100 µM (inactive) | > 100 µM (inactive) | > 100 µM (inactive) | > 100 µM (inactive) | – | > 100 µM (inactive) | > 100 µM (inactive) | > 100 µM (inactive) | > 100 µM (inactive) | > 100 µM (inactive) | > 100 µM (inactive) | > 100 µM (inactive) | > 100 µM (inactive) | > 100 µM (inactive) | > 100 µM (inactive) | > 100 µM (inactive) | > 100 µM (inactive) | > 100 µM (inactive)
Cc1nc(N)c(N2CCN(C(=O)O)CC2)c(O)n1 | > 100 µM (inactive) | > 100 µM (inactive) | – | > 100 µM (inactive) | > 100 µM (inactive) | > 100 µM (inactive) | > 100 µM (inactive) | > 100 µM (inactive) | > 100 µM (inactive) | > 100 µM (inactive) | > 100 µM (inactive) | > 100 µM (inactive) | > 100 µM (inactive) | > 100 µM (inactive) | > 100 µM (inactive) | > 100 µM (inactive) | > 100 µM (inactive) | – | > 100 µM (inactive) | > 100 µM (inactive)
Cc1n[nH]c(=O)c2c3c([nH]c12)-c1ccccc1C3 | > 100 µM (inactive) | > 100 µM (inactive) | > 100 µM (inactive) | > 100 µM (inactive) | > 100 µM (inactive) | – | > 100 µM (inactive) | > 100 µM (inactive) | 75.3 µM (inactive) | > 100 µM (inactive) | > 100 µM (inactive) | > 100 µM (inactive) | > 100 µM (inactive) | > 100 µM (inactive) | 82.8 µM (inactive) | > 100 µM (inactive) | 19.5 µM (inactive) | – | > 100 µM (inactive) | > 100 µM (inactive)
CCCC(=O)OC1=C(c2ccccc2)Sc2ccccc2-n2cccc21 | > 10 µM (inactive) | > 10 µM (inactive) | > 10 µM (inactive) | > 10 µM (inactive) | > 10 µM (inactive) | > 10 µM (inactive) | > 10 µM (inactive) | > 10 µM (inactive) | > 10 µM (inactive) | > 10 µM (inactive) | – | > 10 µM (inactive) | > 10 µM (inactive) | > 10 µM (inactive) | > 10 µM (inactive) | – | > 10 µM (inactive) | > 10 µM (inactive) | – | –
